Entries after “also recorded” stand apart in the source; their conditions may differ.
What was measured:
C57BL/6 mice with EAE = settings: C57BL/6 mouse strain, previously shown; cited from earlier work
[1] = tested on: SJL/J mice induced with EAE; assay: EAE model of multiple sclerosis, clinical score; assay type: in vivo, mouse

Which “onset and progression of EAE” value (C57BL/6 mice with EAE) does the source give for `CCCCC/C=C\C/C=C\C/C=C\C/C=C\CCCC(=O)C(F)(F)F` [AACOCF3, arachidonyltrifluoromethyketone] here?
Its value is “markedly reduce the onset and progression of the disease”.

What does the source list for `CCCCCCCCCCCCCCC(=O)C(=O)NCCCC(=O)O` [AX006, 4-(2-oxohexadecanoyl)amino butyric acid]?
clinical disability score at day 40 ([1]; treatment before onset from day 5/6, stopped day 27, vehicle 2.4): 1.6; clinical score at day 18 ([1]; treatment before onset from day 5/6, vehicle grade 2, 5-point scale): 0.5; clinical course of EAE vs vehicle control ([1]; treatment before onset of symptoms, from day 5/6 after immunization, daily for 3 weeks): significant during the first paralytic episode; also recorded: significant reduction of disease severity
